Assay results taken from patent publication US20080287915A1, “Tissue engineering system with scleral lens” (Boston Foundation for Sight, priority 2007, published 2008).
Where two headings read alike, the source gives them in different places.

Assays:
[1] = system: corneal neovascularization; settings: solution of 1% AVASTIN and 0.01% BAK, one drop, four times per day for at least thirty days, topical; cited from earlier work
[2] = system: corneal neovascularization; test: AVASTIN in the scleral lens drug delivery system to treat corneal neovascularization; assay type: in vivo
Text: This study using AVASTIN® off-label, topically, to treat corneal neovascularization was repeated using the scleral lens drug delivery system. […] This therapeutic effect was achieved without BAK. Instead, the expanded pre-corneal tear film of the scleral lens drug delivery system provided adequate bioavailability of the drug without exposing the cornea to BAK.

## bevacizumab [AVASTIN®]
[1]
  therapeutic effect on corneal neovascularization: Therapeutic effect was reported
[2]; one drop of 1% AVASTIN added to expanded pre-corneal tear film of artificial tears in a scleral lens twice per day, without BAK
  therapeutic effect on corneal neovascularization: achieved a therapeutic effect by thirty days with continued benefit over the subsequent sixty days
[2]; scleral lens drug delivery system
  regression of corneal neovascularization (clinical photos, FIG. 5): regression of corneal neovascularization
